Peptide text beside a SMILES is read from it.
Tests used:
3T3-L1 Adipocytes = experiment: Free fatty acid levels in cultured mouse 3T3-L1 adipocytes, isoproterenol stimulated (Example 2); assay type: cell-based; conditions: test peptides 25 μM; isoproterenol 1 nM
Method in brief: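 Release of free fatty acids, read at 540 nm, was stimulated with 1 nM isoproterenol for 3 h in mouse 3T3-L1 adipocytes (12–17 days of differentiation). Cells were pre-exposed to 25 μM peptide for 18–20 h plus 1 h, with peptide kept in during stimulation. Values are background-subtracted and normalised to isoproterenol alone.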

[1] = system: Diet Induced Obese (DIO) mice; experiment: Body weight, blood glucose and fat mass in Diet Induced Obese mice, 10 days (Example 6); assay type: in vivo, Male C57BL/6 mice; conditions: male DIO mice; 10 days twice daily intraperitoneal 15 mg/kg; N = 8; mean
Experimental: Animals were randomized to treatment groups based on blood glucose levels and body weight. The peptides of the invention were administered to two groups of male DIG mice once or twice daily by subcutaneous or intraperitoneal injection at a dose of 15 mg/kg/dose for 10 days (N=8 animals per treatment group). An additional group of male DIG mice (n=8) received vehicle (water or saline) alone. Body weight, blood glucose levels and food intake were monitored. Body mass distribution (fat vs lean) was determined by quantitative whole body NMR prior to dosing and at the end of dosing.

[2] = Stability in mouse plasma, peptides 10 uM (Example 15); assay type: in vitro ADME; conditions: mouse plasma 37° C., peptide 10 uM; for remaining at 0.25 h, 10 uM / remaining at 0.5 h, 10 uM / remaining at 1 h, 10 uM / remaining at 2 h, 10 uM / remaining at 3 h, 10 uM: pooled mouse plasma; for remaining at 0.25 h, 10 uM: 15 min, read-out: % Remaining at Each Time Point: 15 min; for remaining at 0.5 h, 10 uM: 30 min, read-out: % Remaining at Each Time Point: 30 min; for remaining at 1 h, 10 uM: 60 min, read-out: % Remaining at Each Time Point: 60 min; for remaining at 2 h, 10 uM: 120 min, read-out: % Remaining at Each Time Point: 120 min; for remaining at 3 h, 10 uM: 180 min, read-out: % Remaining at Each Time Point: 180 min
Experimental: Peptides (10 uM) were incubated in pooled mouse plasma at 37° C. and samples were removed and immediately analyzed for the concentration of intact peptide by LC/MS/MS over the course of 3 hours. The percent of peptide remaining in plasma at each time point was calculated relative to the initial peak area (Table 13).

Human Primary Adipocytes = experiment: Free fatty acid levels in cultured human primary adipocytes, forskolin stimulated (Example 5); assay type: cell-based; conditions: test peptides 25 μM; forskolin 1 μM
Experimental: Human primary adipocytes were seeded at 5,000-100,000 cells per well on 96-well, 48-well, or 24-well plate in Pre-adipocyte Medium (Zen-Bio, Durham, N.C.) and grown to confluence at 37° C. in a humidified atmosphere of 5% CO2/95% air. Two days after confluence, cells were placed in Adipocyte Differentiation Medium (Zen-Bio, Durham, N.C.) and cultured for three additional days at 37° C. in a humidified atmosphere of 5% CO2/95% air. The culture media was then replaced with Adipocyte Maintenance Medium (Zen-Bio) and the cells were maintained for an additional 11-21 days at 37° C. in a humidified atmosphere of 5% CO2/95% air with partial medium replacement every other day. Following 14-24 days of differentiation, test peptides were added at a final concentration of 25 μM and incubated for 18-20 hours in Adipocyte Maintenance Medium at 37° C. in a humidified atmosphere of 5% CO2/95%. After 18-20 hours, the media was exchanged with fresh Adipocyte Maintenance Medium containing test peptides and incubated for 1 h at 37° C. in a humidified atmosphere of 5% CO2/95%. After 1 h media was exchanged with Assay Buffer (Zen-Bio) containing forskolin (1 μM) (added to all samples except untreated controls) and test peptides. Cells were incubated for a further 3 hours at 37° C. in a humidified atmosphere of 5% CO2/95%. Free fatty acid concentrations in the media were determined using a Free Fatty Acid Assay Kit (Zen-Bio) according to the manufacturer's instructions using a plate reader (540 nm). Absorbance values were corrected for untreated background and expressed relative to forskolin treated cells. Treatment with forskolin (1 μM) alone was used as the free fatty acid level stimulatory control. The relative standard deviation of the forskolin control was <20%. […] Free fatty acid levels for insulin (100 nM) treatment were <8% of the forskolin control value.

[3] = Stability in mouse plasma, peptides 100 uM (Example 14); assay type: in vitro ADME; conditions: mouse plasma 37° C., peptide 100 uM; for remaining at 0.25 h, 100 uM / remaining at 0.5 h, 100 uM / remaining at 1 h, 100 uM / remaining at 2 h, 100 uM / remaining at 3 h, 100 uM: pooled mouse plasma; for remaining at 0.25 h, 100 uM: 15 min, read-out: % Remaining at Each Time Point: 15 min; for remaining at 0.5 h, 100 uM: 30 min, read-out: % Remaining at Each Time Point: 30 min; for remaining at 1 h, 100 uM: 60 min, read-out: % Remaining at Each Time Point: 60 min; for remaining at 2 h, 100 uM: 120 min, read-out: % Remaining at Each Time Point: 120 min; for remaining at 3 h, 100 uM: 180 min, read-out: % Remaining at Each Time Point: 180 min
Experimental: Peptides (100 uM) were incubated in pooled mouse plasma at 37° C. and samples were removed and immediately analyzed for the concentration of intact peptide by LC/MS/MS over the course of 3 hours. The percent of peptide remaining in plasma at each time point was calculated relative to the initial peak area (Table 12).

Compound	Free Fatty Acid Levels in 3T3-L1 Adipocytes Expressed as a Percent of Isoproterenol Control: Percent of Control Value (3T3-L1 Adipocytes) [%]	Difference from Vehicle Control: Decrease from Baseline in Blood Glucose [1] [mg/dL]	Difference from Vehicle Control: Decrease from Baseline in Body Weight (%) [1] [%]	Difference from Vehicle Control: Decrease from Baseline in Fat Mass [1] [g]	% Remaining at Each Time Point: 0 min [2] [%]	remaining at 0.25 h, 10 uM [2] [%]	remaining at 0.5 h, 10 uM [2] [%]	remaining at 1 h, 10 uM [2] [%]	remaining at 2 h, 10 uM [2] [%]	remaining at 3 h, 10 uM [2] [%]	Free Fatty Acid Levels in Human Primary Adipocytes Expressed as a Percent of Forskolin Control: Percent of Control Value (Human Primary Adipocytes) [%]	% Remaining at Each Time Point: 0 min [3] [%]	remaining at 0.25 h, 100 uM [3] [%]	remaining at 0.5 h, 100 uM [3] [%]	remaining at 1 h, 100 uM [3] [%]	remaining at 2 h, 100 uM [3] [%]	remaining at 3 h, 100 uM [3] [%]
H-MRWQEEGYIFYPRKLR-OH [compound 172]	54.2	-31.5	−2.48	-0.77	100	59.4	33.6	6.43	0.44	0	–	–	–	–	–	–	–
H-ERWQEAGYIAYPR-OH [compound 241]	50.9	-7.00	−1.49	-0.34	100	98.8	96.8	89.5	84.3	80.7	–	–	–	–	–	–	–
H-RWQEMNYIAEPR-OH [compound 251]	83.7	-34.3	−0.55	0.02	100	70.6	47.5	44.4	38.1	30.2	–	–	–	–	–	–	–
H-MRWQEMGYIFYPAKLR-OH [compound 18]	–	1.52	−0.80	-0.65	–	–	–	–	–	–	101	100	30.8	24	19.4	9.02	4.53
CC[C@H](C)[C@H](NC(=O)[C@H](Cc1ccc(O)cc1)NC(=O)CNC(=O)[C@H](CCSC)NC(=O)[C@H](CCC(=O)O)NC(=O)[C@H](CCC(N)=O)NC(=O)[C@H](Cc1c[nH]c2ccccc12)NC(=O)[C@H](CCCNC(=N)N)NC(=O)[C@@H](N)CCSC)C(=O)N[C@@H](Cc1ccccc1)C(=O)N[C@@H](Cc1ccc(O)cc1)C(=O)N1CCC[C@H]1C(=O)N[C@@H](CCCNC(=N)N)C(=O)N[C@H](C)C(=O)N[C@@H](CC(C)C)C(=O)N[C@@H](CCCNC(=N)N)C(=O)O [compound 149] (HELM PEPTIDE1{M.R.W.Q.E.M.G.Y.I.F.Y.P.R.[dA].L.R}$$$$V2.0)	38.6	-11.4	−5.22	-2.13	100	59.3	36.1	11.1	0.98	0.28	–	–	–	–	–	–	–
H-MRWQEMGYIAYPRKLR-OH [compound 15]	67.9	–	–	–	–	–	–	–	–	–	–	100	19.5	18.8	21.8	6.63	0
Ac-MRWQEMGYIFYPR-NH2 [compound 61]	92.9	–	–	–	–	–	–	–	–	–	–	100	69.1	65.8	59.1	43.3	29.1
H-MRWQEMGYIFYPRALR-OH [compound 19]	66.0	-14.5	−3.27	-2.34	–	–	–	–	–	–	113	100	18.8	18.2	8.52	1.82	0.22
H-MRWQEAGYIFYPRKLR-OH [compound 11]	78.8	-27.6	−8.81	-5.85	–	–	–	–	–	–	–	100	18.3	17.5	11.5	5.25	2.38
H-MRWQEMGYIFYARKLR-OH [compound 17]	–	-2.63	−2.87	-0.65	100	46	26.8	11.9	11.3	7.35	–	–	–	–	–	–	–

— patent US11753445B2, “Therapeutic peptides” (COHBAR, INC., priority 2016, dated 2023)
